SMILES strings stand for the structures.

2 molecules from ChEMBL document CHEMBL5727600, “1,4-dicarbonyl-piperidyl derivatives” (2020) can be followed below.

Experiment [1] addresses T1, Poly [ADP-ribose] polymerase tankyrase-2 (Homo sapiens, UniProt Q9H2K2).
T1 sequence (Q9H2K2 whole entry): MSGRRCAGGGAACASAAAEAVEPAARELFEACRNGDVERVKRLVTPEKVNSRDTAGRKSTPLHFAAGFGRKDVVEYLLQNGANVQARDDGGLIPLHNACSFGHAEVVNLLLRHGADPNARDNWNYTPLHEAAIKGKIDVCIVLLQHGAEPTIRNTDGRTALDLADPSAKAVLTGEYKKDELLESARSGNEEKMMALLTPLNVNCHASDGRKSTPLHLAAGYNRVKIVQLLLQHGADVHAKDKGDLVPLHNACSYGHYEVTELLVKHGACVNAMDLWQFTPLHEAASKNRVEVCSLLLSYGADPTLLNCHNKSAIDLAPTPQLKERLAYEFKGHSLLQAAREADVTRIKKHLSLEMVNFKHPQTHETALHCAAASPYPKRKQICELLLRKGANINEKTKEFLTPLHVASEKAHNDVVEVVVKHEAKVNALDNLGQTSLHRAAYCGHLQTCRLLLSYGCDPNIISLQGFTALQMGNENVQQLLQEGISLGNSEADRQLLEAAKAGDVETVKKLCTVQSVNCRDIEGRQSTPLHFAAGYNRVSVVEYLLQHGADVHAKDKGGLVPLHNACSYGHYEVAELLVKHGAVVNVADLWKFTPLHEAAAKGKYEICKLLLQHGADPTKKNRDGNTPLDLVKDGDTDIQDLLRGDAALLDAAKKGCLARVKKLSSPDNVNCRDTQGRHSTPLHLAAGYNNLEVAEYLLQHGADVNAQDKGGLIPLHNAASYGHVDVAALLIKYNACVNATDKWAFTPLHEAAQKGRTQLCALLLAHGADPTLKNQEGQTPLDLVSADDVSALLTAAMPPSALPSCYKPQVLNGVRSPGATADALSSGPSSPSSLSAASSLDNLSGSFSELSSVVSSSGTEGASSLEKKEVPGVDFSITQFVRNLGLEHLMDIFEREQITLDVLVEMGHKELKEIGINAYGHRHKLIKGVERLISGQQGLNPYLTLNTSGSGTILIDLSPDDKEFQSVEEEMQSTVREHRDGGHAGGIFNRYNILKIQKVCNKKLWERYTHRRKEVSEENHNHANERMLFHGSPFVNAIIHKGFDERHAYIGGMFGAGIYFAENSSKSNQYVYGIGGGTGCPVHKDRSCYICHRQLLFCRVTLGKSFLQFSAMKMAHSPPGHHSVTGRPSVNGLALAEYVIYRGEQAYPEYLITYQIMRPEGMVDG
The experiment is described as follows: Biochemical Activity Assay: TNKS 1 and 2: The activity ELISA is performed in 384 well Glutathione coated microtiter plates (Express capture Glutathione coated plate, Biocat, Heidelberg, Germany). The plates are pre-equilibrated with PBS. Then the plates are incubated with 50 μl 20 ng/well GST-tagged Tnks-1 (1023-1327 aa, prepared in-house), respectively GST-tagged Tnks-2 (873-1166 aa, prepared ….

The target in experiment [2] is T2, Poly [ADP-ribose] polymerase tankyrase-1 (Homo sapiens, UniProt O95271).
T2 sequence (O95271 whole entry): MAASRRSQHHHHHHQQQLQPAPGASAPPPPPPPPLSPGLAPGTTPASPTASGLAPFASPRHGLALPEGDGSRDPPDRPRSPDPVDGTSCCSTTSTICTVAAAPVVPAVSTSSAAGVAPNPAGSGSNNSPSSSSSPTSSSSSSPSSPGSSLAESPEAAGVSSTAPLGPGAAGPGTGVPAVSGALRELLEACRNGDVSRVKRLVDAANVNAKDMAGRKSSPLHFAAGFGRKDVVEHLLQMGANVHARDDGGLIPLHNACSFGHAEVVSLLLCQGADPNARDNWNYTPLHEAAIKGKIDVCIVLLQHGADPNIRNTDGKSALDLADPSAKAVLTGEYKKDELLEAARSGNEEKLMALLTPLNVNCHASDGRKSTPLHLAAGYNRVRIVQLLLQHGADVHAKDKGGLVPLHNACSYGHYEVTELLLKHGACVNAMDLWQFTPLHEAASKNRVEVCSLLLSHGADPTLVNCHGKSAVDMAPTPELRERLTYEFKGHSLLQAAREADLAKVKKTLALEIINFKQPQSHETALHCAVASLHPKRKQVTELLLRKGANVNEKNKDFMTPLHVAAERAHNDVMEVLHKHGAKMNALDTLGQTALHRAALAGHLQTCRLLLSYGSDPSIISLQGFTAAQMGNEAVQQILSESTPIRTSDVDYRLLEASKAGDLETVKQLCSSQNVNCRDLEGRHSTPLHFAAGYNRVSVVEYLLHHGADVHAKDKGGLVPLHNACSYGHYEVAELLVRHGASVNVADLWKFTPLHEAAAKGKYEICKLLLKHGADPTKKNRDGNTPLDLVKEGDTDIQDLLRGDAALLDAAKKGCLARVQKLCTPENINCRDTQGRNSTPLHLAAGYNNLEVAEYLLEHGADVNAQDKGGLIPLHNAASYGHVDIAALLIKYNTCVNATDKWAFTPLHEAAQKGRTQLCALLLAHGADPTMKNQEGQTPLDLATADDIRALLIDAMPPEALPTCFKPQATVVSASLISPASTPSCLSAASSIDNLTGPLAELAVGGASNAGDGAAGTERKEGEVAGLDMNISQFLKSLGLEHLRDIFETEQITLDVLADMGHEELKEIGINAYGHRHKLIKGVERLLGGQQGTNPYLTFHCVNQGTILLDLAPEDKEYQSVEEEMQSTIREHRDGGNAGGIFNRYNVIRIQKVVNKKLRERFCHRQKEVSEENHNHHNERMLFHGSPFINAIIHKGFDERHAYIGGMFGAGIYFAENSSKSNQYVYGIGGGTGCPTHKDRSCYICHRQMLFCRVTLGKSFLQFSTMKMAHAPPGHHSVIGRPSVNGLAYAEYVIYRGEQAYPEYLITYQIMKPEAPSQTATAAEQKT
Briefly: Biochemical Activity Assay: TNKS 1 and 2: The activity ELISA is performed in 384 well Glutathione coated microtiter plates (Express capture Glutathione coated plate, Biocat, Heidelberg, Germany). The plates are pre-equilibrated with PBS. Then the plates are incubated with 50 μl 20 ng/well GST-tagged Tnks-1 (1023-1327 aa, prepared in-house), respectively GST-tagged Tnks-2 (873-1166 aa, prepared in-house) in assay buffer (50 mM HEPES, 4 mM Mg-chloride, 0.05% Pluronic F-68, 2 mM DTT, pH 7.7) overnight at 4° C. The plates are washed 3 times with PBS-Tween-20. The wells are blocked by incubation at room temperature for 20 minutes with 50 μl blocking buffer (PBS, 0.05% Tween-20, 0.5% BSA). Afterwards the plates are washed 3 times with PBS-Tween-20. The enzymatic reaction is performed in 50 μl reaction solution (50 mM HEPES, 4 mM Mg-chloride, 0.05% Pluronic F-68, 1.4 mM DTT, 0.5% DMSO, pH 7.7) with 10 μM bio-NAD (Biolog, Life science Inst., Bremen, Germany) as co-substrate in the absence or presence of the test compound (10 dilution concentrations) for 1 hour at 30° C. The reaction is stopped by 3 times washing with PBS-Tween-20. For the detection 50 μl of 20 ng/μl Streptavidin, HRP conjugate (MoBiTec, Göttingen, Germany) in PBS/0.05% Tween-20/0.01% BSA are added and the plates are incubated for 30 minutes at room temperature. […]. For orientation: In an ELISA, binding on a coated surface is turned into a signal by an enzyme label.

On to `Cc1cc(F)cc2c(=O)[nH]c(C[C@@H](C)CC(=O)N3CCC(C(=O)c4cnn(C)c4)CC3)nc12`, for which the 50% inhibitory concentration (IC50) in experiment [1] was 590 pM; in experiment [2], 660 pM.
The like results for `Cc1cc(F)cc2c(=O)[nH]c(C[C@H](C)CC(=O)N3CCC(C(=O)c4cnn(C)c4)CC3)nc12` were, in that order, 200 pM and 310 pM.

What is called IC50 is the concentration at which inhibition is half-maximal.
